# Measured values published in patent publication US9826761B2, “Compositions and methods for mitigating dietary sulfur in animals” (SarTec Corporation, priority 2008, dated 2017).
# Assays:
# [1] = Titration of approx. 200 mM sulfide in fresh rumen fluid with 1 M metal chloride, silver/sulfide electrode; design: species or system Holstein cows; settings: for mVolts (Negative Value): ~200 mM sulfide, fresh rumen fluid
# Experimental: Fresh undiluted rumen fluid was obtained from rumen fistulated Holstein cows. 1.5 ml of a saturated solution of Na2S in water (approximately 2.7 M) was added to 18.5 ml of the rumen fluid. Sodium sulfide solutions were quantified by titration using a silver/sulfide electrode (Orion, Ion Plus Silver/Sulfide 9616BNWP) and a commercial lead standard (0.1 M Pb^2+, Orion 948206). The final concentration for sulfide ion in the rumen fluid was approximately 200 mM. This solution was then titrated with a 1 M solution of MnCl2 in water. The progress of the reaction was followed using the silver/sulfide electrode.
# Fresh undiluted rumen fluid was obtained from rumen fistulated Holstein cows. 1.5 ml of saturated solution of Na2S in water (approximately 2.7 M) was added to 18.5 ml of the rumen fluid. The final concentration of sulfide ion in the rumen fluid was approximately 200 mM. This solution was then titrated with a 1 M solution of FeCl2 in water. The progress of the reaction was followed using the same silver/sulfide electrode set-up described above (Orion, Ion Plus Silver/Sulfide 9616BNWP).
# Data taken from Examples 1 and 2 above were plotted together in order to gauge the relative efficacy of MnCl2 versus FeCl2 in removing sulfide ion from rumen fluid.
# [2] = Precipitating activity: rumen fluid containing manganese compound titrated with 1.0M Na2S, silver/sulfide electrode; design: species or system Holstein cows; settings: 100 mM MnO2(IV) in rumen fluid
# Experimental: Next, 0.28 g of MnO(II) was placed in a 100 ml beaker and 20 ml of rumen fluid was added. Then 0.17 g of MnO2(IV) was placed in 100 ml beaker and 20 ml of rumen fluid was added. Each of these compositions, in addition to a rumen fluid control, was then titrated with a 1.0M solution of Na2S. The progress of the reaction was followed using the same silver/sulfide electrode set-up described above (Orion, Ion Plus Silver/Sulfide 9616BNWP).
structure (smiles),measurement,setting,value
"[Cl][Fe][Cl] [FeCl2, iron (II) chloride]",concentration of sulfide ion within the rumen fluid,[1]; addition of 1 M titrant to ~200 mM sulfide in fresh rumen fluid,effective to reduce the concentration of sulfide ion
same,"total sulfide ion concentrations in the rumen fluid, FeCl2 versus MnCl2",[1]; data of Examples 1 and 2 plotted together (FIG. 3),lower total sulfide ion concentrations
same,mVolts (Negative Value),[1]; titrant volume 0.0 of 1M FeCl2,937.5 mVolts
same,mVolts (Negative Value),[1]; titrant volume 0.1 of 1M FeCl2,937.5 mVolts
same,mVolts (Negative Value),[1]; titrant volume 0.4 of 1M FeCl2,935.1 mVolts
same,mVolts (Negative Value),[1]; titrant volume 0.6 of 1M FeCl2,906.2 mVolts
same,mVolts (Negative Value),[1]; titrant volume 0.8 of 1M FeCl2,926.7 mVolts
same,mVolts (Negative Value),[1]; titrant volume 1.0 of 1M FeCl2,916.9 mVolts
same,mVolts (Negative Value),[1]; titrant volume 1.3 of 1M FeCl2,905.8 mVolts
same,mVolts (Negative Value),[1]; titrant volume 1.5 of 1M FeCl2,886.6 mVolts
same,mVolts (Negative Value),[1]; titrant volume 1.7 of 1M FeCl2,869.4 mVolts
same,mVolts (Negative Value),[1]; titrant volume 1.9 of 1M FeCl2,849.4 mVolts
same,mVolts (Negative Value),[1]; titrant volume 2.1 of 1M FeCl2,833.9 mVolts
same,mVolts (Negative Value),[1]; titrant volume 2.4 of 1M FeCl2,817.3 mVolts
same,mVolts (Negative Value),[1]; titrant volume 2.6 of 1M FeCl2,816.8 mVolts
same,mVolts (Negative Value),[1]; titrant volume 2.8 of 1M FeCl2,767.2 mVolts
same,mVolts (Negative Value),[1]; titrant volume 3.0 of 1M FeCl2,735.5 mVolts
same,mVolts (Negative Value),[1]; titrant volume 3.5 of 1M FeCl2,634.0 mVolts
same,mVolts (Negative Value),[1]; titrant volume 3.7 of 1M FeCl2,622.8 mVolts
same,mVolts (Negative Value),[1]; titrant volume 3.9 of 1M FeCl2,616.3 mVolts
same,mVolts (Negative Value),[1]; titrant volume 4.1 of 1M FeCl2,610.8 mVolts
same,mVolts (Negative Value),[1]; titrant volume 4.3 of 1M FeCl2,607.2 mVolts
same,mVolts (Negative Value),[1]; titrant volume 4.5 of 1M FeCl2,603.3 mVolts
same,mVolts (Negative Value),[1]; titrant volume 4.8 of 1M FeCl2,600.0 mVolts
same,mVolts (Negative Value),[1]; titrant volume 5.0 of 1M FeCl2,595.7 mVolts
same,mVolts (Negative Value),[1]; titrant volume 5.5 of 1M FeCl2,590.0 mVolts
same,mVolts (Negative Value),[1]; titrant volume 6.0 of 1M FeCl2,586.5 mVolts
[O]=[Mn]=[O] [MnO2(IV)],mVolts,[2]; Vol 1M Na2S 0.0,597.2 mVolts
same,mVolts,[2]; Vol 1M Na2S 0.1,672.5 mVolts
same,mVolts,[2]; Vol 1M Na2S 0.2,679.4 mVolts
same,mVolts,[2]; Vol 1M Na2S 0.3,688.1 mVolts
same,mVolts,[2]; Vol 1M Na2S 0.4,698.0 mVolts
same,mVolts,[2]; Vol 1M Na2S 0.5,699.4 mVolts
same,mVolts,[2]; Vol 1M Na2S 0.7,709.7 mVolts
same,mVolts,[2]; Vol 1M Na2S 0.8,720.0 mVolts
same,mVolts,[2]; Vol 1M Na2S 0.9,728.2 mVolts
same,mVolts,[2]; Vol 1M Na2S 1.0,738.1 mVolts
same,mVolts,[2]; Vol 1M Na2S 1.1,732.5 mVolts
same,mVolts,[2]; Vol 1M Na2S 1.2,737.4 mVolts
same,mVolts,[2]; Vol 1M Na2S 1.3,740.0 mVolts
same,mVolts,[2]; Vol 1M Na2S 1.4,749.2 mVolts
same,mVolts,[2]; Vol 1M Na2S 1.5,742.7 mVolts
same,mVolts,[2]; Vol 1M Na2S 1.8,762.4 mVolts
same,mVolts,[2]; Vol 1M Na2S 2.1,776.0 mVolts
same,mVolts,[2]; Vol 1M Na2S 2.4,784.3 mVolts
same,mVolts,[2]; Vol 1M Na2S 2.6,791.9 mVolts
same,mVolts,[2]; Vol 1M Na2S 2.8,796.6 mVolts
same,mVolts,[2]; Vol 1M Na2S 3.0,803.1 mVolts
same,mVolts,[2]; Vol 1M Na2S 3.2,806.0 mVolts
same,mVolts,[2]; Vol 1M Na2S 3.5,817.4 mVolts
same,mVolts,[2]; Vol 1M Na2S 3.7,817.0 mVolts
same,mVolts,[2]; Vol 1M Na2S 3.9,816.5 mVolts
same,mVolts,[2]; Vol 1M Na2S 4.1,817.2 mVolts
